In brackets after ≈: the same amount, converted by molar mass.
Assays:
[1] = test system: Staphylococcus aureus; test: Antibacterial activity against Methycillin-resistant Staphylococcus aureus ATCC 43300 assessed as inhibition of bacterial growth measured after 24 hrs by broth dilution method; type: functional
[2] = test system: Staphylococcus aureus; test: Antibacterial activity against Staphylococcus aureus ATCC 29213 assessed as inhibition of bacterial growth measured after 24 hrs by broth dilution method; type: functional
[3] = test system: Staphylococcus aureus; test: Antibacterial activity against Staphylococcus aureus AD3 assessed as inhibition of bacterial growth measured after 24 hrs by broth dilution method; type: functional
[4] = test system: Staphylococcus aureus; test: Antibacterial activity against Staphylococcus aureus 144 assessed as inhibition of bacterial growth measured after 24 hrs by broth dilution method; type: functional
[5] = test system: Escherichia coli; test: Antibacterial activity against Escherichia coli ATCC 25922 assessed as inhibition of bacterial growth measured after 24 hrs by broth dilution method; type: functional
[6] = test system: Staphylococcus aureus; test: Bactericidal activity against Methycillin-resistant Staphylococcus aureus ATCC 43300 assessed as inhibition of bacterial growth measured after 96 hrs by broth dilution method; type: functional
[7] = test system: Staphylococcus aureus; test: Bactericidal activity against Staphylococcus aureus ATCC 29213 assessed as inhibition of bacterial growth measured after 96 hrs by broth dilution method; type: functional
[8] = test system: Staphylococcus aureus; test: Bactericidal activity against Staphylococcus aureus AD3 assessed as inhibition of bacterial growth measured after 96 hrs by broth dilution method; type: functional
[9] = test system: Staphylococcus aureus; test: Bactericidal activity against Staphylococcus aureus 144 assessed as inhibition of bacterial growth measured after 96 hrs by broth dilution method; type: functional
[10] = test system: Escherichia coli; test: Bactericidal activity against Escherichia coli ATCC 25922 assessed as inhibition of bacterial growth measured after 96 hrs by broth dilution method; type: functional
[11] = test system: RAW264.7; test: Cytotoxicity against mouse RAW264.7 cells assessed as reduced cell viability at 4 ug/ml measured after 16 hrs by MTT assay; type: cell-based; settings: raw264.7, 16 h, dose 4 µg/ml
[12] = test system: HepG2; test: Cytotoxicity against human HepG2 cells assessed as reduced cell viability at 4 ug/ml measured after 16 hrs by MTT assay; type: cell-based; settings: hepg2, 16 h, dose 4 µg/ml

Compound	MIC [1] [µg/mL]	MIC [2] [µg/mL]	MIC [3] [µg/mL]	MIC [4] [µg/mL]	MIC [5] [µg/mL]	MBC [6] [µg/mL]	MBC [7] [µg/mL]	MBC [8] [µg/mL]	MBC [9] [µg/mL]	MBC [10] [µg/mL]	Activity [11]	Activity [12]
C=C[C@]1(C)C[C@@H](OC(=O)CSc2nnc(C)n2/N=C/c2cccc([N+](=O)[O-])c2)[C@]2(C)[C@H](C)CC[C@]3(CCC(=O)[C@H]32)[C@@H](C)[C@@H]1O	1 (≈ 1.6 µM)	2 (≈ 3.21 µM)	2 (≈ 3.21 µM)	2 (≈ 3.21 µM)	> 64	2 (≈ 3.21 µM)	8 (≈ 12.8 µM)	8 (≈ 12.8 µM)	4 (≈ 6.41 µM)	> 64	Non-Toxic	Non-Toxic
C=C[C@]1(C)C[C@@H](OC(=O)CSc2nnc(C)n2/N=C/c2ccccc2C)[C@]2(C)[C@H](C)CC[C@]3(CCC(=O)[C@H]32)[C@@H](C)[C@@H]1O	1 (≈ 1.69 µM)	1 (≈ 1.69 µM)	1 (≈ 1.69 µM)	2 (≈ 3.37 µM)	> 64	2 (≈ 3.37 µM)	2 (≈ 3.37 µM)	4 (≈ 6.75 µM)	4 (≈ 6.75 µM)	> 64	Non-Toxic	Non-Toxic
C=C[C@]1(C)C[C@@H](OC(=O)CSc2nnc(C)n2/N=C/c2cccc(Cl)c2)[C@]2(C)[C@H](C)CC[C@]3(CCC(=O)[C@H]32)[C@@H](C)[C@@H]1O	1 (≈ 1.63 µM)	1 (≈ 1.63 µM)	2 (≈ 3.26 µM)	2 (≈ 3.26 µM)	> 64	2 (≈ 3.26 µM)	4 (≈ 6.52 µM)	4 (≈ 6.52 µM)	4 (≈ 6.52 µM)	> 64	Non-Toxic	Non-Toxic
C=C[C@]1(C)C[C@@H](OC(=O)CSc2nnc(C)n2/N=C/c2ccc(Cl)cc2)[C@]2(C)[C@H](C)CC[C@]3(CCC(=O)[C@H]32)[C@@H](C)[C@@H]1O	0.5 (≈ 0.815 µM)	1 (≈ 1.63 µM)	1 (≈ 1.63 µM)	2 (≈ 3.26 µM)	> 64	2 (≈ 3.26 µM)	2 (≈ 3.26 µM)	4 (≈ 6.52 µM)	4 (≈ 6.52 µM)	> 64	Non-Toxic	Non-Toxic
C=C[C@]1(C)C[C@@H](OC(=O)CSc2nnc(C)n2/N=C/c2ccccc2)[C@]2(C)[C@H](C)CC[C@]3(CCC(=O)[C@H]32)[C@@H](C)[C@@H]1O	0.5 (≈ 0.864 µM)	1 (≈ 1.73 µM)	1 (≈ 1.73 µM)	2 (≈ 3.46 µM)	> 64	1 (≈ 1.73 µM)	2 (≈ 3.46 µM)	4 (≈ 6.91 µM)	4 (≈ 6.91 µM)	> 64	Non-Toxic	Non-Toxic
C=C[C@]1(C)C[C@@H](OC(=O)CSc2nnc(C)n2/N=C/c2ccc([N+](=O)[O-])cc2)[C@]2(C)[C@H](C)CC[C@]3(CCC(=O)[C@H]32)[C@@H](C)[C@@H]1O	1 (≈ 1.6 µM)	2 (≈ 3.21 µM)	2 (≈ 3.21 µM)	2 (≈ 3.21 µM)	> 64	2 (≈ 3.21 µM)	4 (≈ 6.41 µM)	8 (≈ 12.8 µM)	8 (≈ 12.8 µM)	> 64	Non-Toxic	Non-Toxic
C=C[C@]1(C)C[C@@H](OC(=O)CSc2nnc(C)n2/N=C/c2cccc(O)c2)[C@]2(C)[C@H](C)CC[C@]3(CCC(=O)[C@H]32)[C@@H](C)[C@@H]1O	0.5 (≈ 0.841 µM)	0.5 (≈ 0.841 µM)	1 (≈ 1.68 µM)	2 (≈ 3.36 µM)	> 64	1 (≈ 1.68 µM)	2 (≈ 3.36 µM)	4 (≈ 6.73 µM)	4 (≈ 6.73 µM)	> 64	Non-Toxic	Non-Toxic
C=C[C@]1(C)C[C@@H](OC(=O)CSc2nnc(C)n2/N=C/c2cccc(F)c2)[C@]2(C)[C@H](C)CC[C@]3(CCC(=O)[C@H]32)[C@@H](C)[C@@H]1O	0.5 (≈ 0.838 µM)	1 (≈ 1.68 µM)	1 (≈ 1.68 µM)	2 (≈ 3.35 µM)	> 64	1 (≈ 1.68 µM)	4 (≈ 6.7 µM)	4 (≈ 6.7 µM)	4 (≈ 6.7 µM)	> 64	Non-Toxic	Non-Toxic
C=C[C@]1(C)C[C@@H](OC(=O)CSc2nnc(C)n2/N=C/c2ccccc2F)[C@]2(C)[C@H](C)CC[C@]3(CCC(=O)[C@H]32)[C@@H](C)[C@@H]1O	0.5 (≈ 0.838 µM)	1 (≈ 1.68 µM)	1 (≈ 1.68 µM)	2 (≈ 3.35 µM)	> 64	1 (≈ 1.68 µM)	2 (≈ 3.35 µM)	4 (≈ 6.7 µM)	4 (≈ 6.7 µM)	> 64	Non-Toxic	Non-Toxic
C=C[C@]1(C)C[C@@H](OC(=O)CO)[C@]2(C)[C@H](C)CC[C@]3(CCC(=O)[C@H]32)[C@@H](C)[C@@H]1O [PLEUROMULIN]	2 (≈ 5.28 µM)	2 (≈ 5.28 µM)	2 (≈ 5.28 µM)	2 (≈ 5.28 µM)	> 64	4 (≈ 10.6 µM)	4 (≈ 10.6 µM)	4 (≈ 10.6 µM)	4 (≈ 10.6 µM)	> 64		

Source: ChEMBL document CHEMBL4831486, “Design, synthesis and biological evaluation of pleuromutilin-Schiff base hybrids as potent anti-MRSA agents in vitro and in vivo” (Eur J Med Chem, 2021)
